In patent US5510379A, “Sulfonate ACAT inhibitors” (priority 1994, dated 1996) one finds IC50 and change in vivo data, which are given here for ten compounds.

Read-outs that look alike come from different tables or passages of the source.

Assay [1] concerns the target T1, acyl-CoA: cholesterol acyltransferase (ACAT) (Rattus norvegicus, UniProt Q7TQM4).
T1 construct: tissue preparation containing rat liver microsomes; from tissue; host or cells: rat liver microsomes
T1 sequence (Q7TQM4 1-524): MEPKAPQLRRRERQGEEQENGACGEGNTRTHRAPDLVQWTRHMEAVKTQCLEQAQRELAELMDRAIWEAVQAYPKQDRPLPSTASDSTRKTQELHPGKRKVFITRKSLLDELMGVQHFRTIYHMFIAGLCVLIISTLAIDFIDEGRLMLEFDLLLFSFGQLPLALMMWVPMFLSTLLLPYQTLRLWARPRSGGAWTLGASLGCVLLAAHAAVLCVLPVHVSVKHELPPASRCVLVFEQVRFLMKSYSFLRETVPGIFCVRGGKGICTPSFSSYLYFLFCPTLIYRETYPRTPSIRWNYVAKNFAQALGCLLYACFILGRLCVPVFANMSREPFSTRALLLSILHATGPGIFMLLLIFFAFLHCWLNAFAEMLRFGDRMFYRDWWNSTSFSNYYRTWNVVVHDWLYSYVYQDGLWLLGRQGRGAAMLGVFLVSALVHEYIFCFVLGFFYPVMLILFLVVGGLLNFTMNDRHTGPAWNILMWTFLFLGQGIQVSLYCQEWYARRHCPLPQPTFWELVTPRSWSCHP
In words: in vitro ACAT inhibition test in rat liver microsomes (LAI). The assay is classed as biochemical. Here is the method: The ability of representative compounds of the present invention to inhibit ACAT was measured using an in vitro test more fully described in F.J. Field and R.G. Salone, Biochemica et Biophysica Acta, 772:557-570 (1982). The test assesses the ability of a test compound to inhibit the acylation of cholesterol by oleic acid by measuring the amount of radiolabeled cholesterol oleate formed from radiolabeled oleic acid in a tissue preparation containing rat liver microsomes (designated LAI).
In general terms: Microsomes from liver hold many membrane-bound enzymes, among them those of drug oxidation.

In a further assay the test system is male Sprague-Dawley rats. In words: in vivo screen APCC in cholesterol-fed rats. Conditions: Rattus norvegicus, po, 30 mg/kg by gavage, high fat, high cholesterol diet overnight, versus vehicle and diet only, read-out: APCC percent change in total cholesterol (%TC) from control animals. An excerpt:
In an in vivo screen designated APCC, male Sprague-Dawley rats (200-225 g body weight) were randomly divided into treatment groups and dosed at 4 PM with either vehicle (CMC/Tween) or suspensions of invention compounds in vehicle. The normal chow diet was then replaced with a high fat, high cholesterol diet (5.5% peanut oil, 1.5% cholesterol, and 0.5% cholic acid). The rats consumed this diet ad libitum during the night and were sacrificed at 8 AM to obtain blood samples for cholesterol analysis using standard procedures. Statistical differences between mean cholesterol values for the same vehicle were determined using analysis of variance followed by Fisher's least significant test. The results of this trial for representative compounds of the present invention also appear in Table I as the percent change in total cholesterol (%TC) from control animals given vehicle and diet only. All compounds in the APCC test reported in Table 1 were administered by gavage at 30 mg/kg.

Where [2] appears, read: rat liver microsomes, formation of radiolabeled cholesterol oleate from radiolabeled oleic acid, read-out: LAI IC50.

For orientation: IC50 means the concentration needed to halve the response being measured. Regarding `CC(C)c1cc(C(C)C)c(OS(=O)(=O)CC(=O)Nc2c(C(C)C)cccc2C(C)C)c(C(C)C)c1` [Example 9], the IC50 in assay [1] (setting [2]) stood at 7 nM. Further, the change in vivo at 30 mg/kg with male Sprague-Dawley rats was -61%.
Taken in the same sequence, the figures for `CC(C)c1cc(C(C)C)c(NC(=O)CS(=O)(=O)Oc2c(C(C)C)cccc2C(C)C)c(C(C)C)c1` [Example 6] were 1660 nM and -31%.
As for `CSc1ccc(CN(C(=O)CS(=O)(=O)Oc2c(C(C)C)cc(C(C)C)cc2C(C)C)C(C)C)cc1` [Example 7, 2,4,6-Triisopropylphenyl N-isopropyl-N-(4-thiomethylphenylmethyl)carbamoylmethyl sulfonate], in assay [1] (setting [2]), the IC50 was found to be 3600 nM. In addition, the change in vivo at 30 mg/kg in the assay with male Sprague-Dawley rats was -17%.
Regarding `CC(C)c1cccc(C(C)C)c1OS(=O)(=O)CC(=O)NC(c1ccccc1)c1ccccc1` [Example 4, 2,6-Diisopropylphenyl N-diphenylmethylcarbamoylmethyl sulfonate], the IC50 in assay [1] (setting [2]) was 1800 nM. Besides, the change in vivo at 30 mg/kg with male Sprague-Dawley rats is -43%.
`CC(C)c1cccc(C(C)C)c1OS(=O)(=O)CC(=O)O` [Example 5, 2,6-Diisopropylphenoxysulfonyl acetic acid] displayed an IC50 in assay [1] above 50000 nM. Further, the change in vivo at 30 mg/kg in the assay on male Sprague-Dawley rats was -31%.
Turning to `CC(C)c1cccc(C(C)C)c1NC(=O)CS(=O)(=O)Oc1c(C(C)C)cccc1C(C)C` [Example 10, 2.6-Diisopropylphenyl N-(2,6-diisopropylphenyl)carbamoylmethylsulfonate], the IC50 in assay [1] (setting [2]) is 27 nM. Further, in the assay with male Sprague-Dawley rats, the change in vivo at 30 mg/kg is -42%.
For the compound `CC(C)c1cc(C(C)C)c(OS(=O)(=O)CC(=O)N(Cc2ccccc2)Cc2ccccc2)c(C(C)C)c1` [Example 1, 2,4,6-Triisopropylphenyl N,N-dibenzylcarbamoylmethylsulfonate], the IC50 in assay [1] (setting [2]) was above 5000 nM. In the assay on male Sprague-Dawley rats, the change in vivo at 30 mg/kg was -7%.
For `CC(C)c1cc(C(C)C)c(OS(=O)(=O)CC(=O)NC(c2ccccc2)c2ccccc2)c(C(C)C)c1` [Example 2, 2,4,6-Triisopropylphenyl N-diphenylmethylcarbamoylmethyl sulfonate], the IC50 in assay [1] (setting [2]) amounted to 790 nM. Moreover, the change in vivo at 30 mg/kg in the assay on male Sprague-Dawley rats was -19%.
Taken in the same sequence, the figures for `CCCCCCCCCCCCNC(=O)CS(=O)(=O)Oc1c(C(C)C)cccc1C(C)C` [Example 3, 2,6-Diisopropylphenyl N-dodecyl carbamoylmethyl sulfonate] were 3000 nM and -3%.
The matching figures for `CC(C)c1cccc(C(C)C)c1OC(=O)CS(=O)(=O)Oc1c(C(C)C)cccc1C(C)C` [Example 8, 2,6-Diisopropylphenyl (2,6-diisopropylphenoxycarbonyl)methylsulfonate]: 1500 nM and -21%.
